Read-outs that look alike come from different tables or passages of the source.
How the values were obtained:
TCDC hepatic toxicity = type: in vivo, male Sprague-Dawley rats
Excerpt: Young adult male Sprague-Dawley rats (150-180 gram weight) purchased from Sasco, Inc. (Omaha, Nebr.) were fed Purina Lab Chow (Ralston Purina Co., Chicago, Ill.) ad libitum for 2-3 weeks and housed in polyethylene cages with stainless steel tops on a 12-hour light-dark cycle. All rats received humane care in compliance with the guidelines of the Animal Use in Research Committee of the University of Colorado Health Sciences Center. […] TCDC is a conjugate of the bile acid most implicated in cholestatic liver injury9,11,12. TCDC was solubilized in 5% dextrose, 10% BSA, and 0.45% normal saline. TCDC was administered while rats were under light methoxyflurane anesthesia as an intravenous bolus of the desired dose in 1 to 2 minutes through the tail vein. TCDC dosing was performed between 7 and 9 am. […] Rats were divided into two treatment groups. One group was pretreated with parenteral Vitamin E (all-rac-alpha tocopherol, […], Hoffmann-LaRoche,Nutley, N.J.). The other group was not pretreated. These rats then received either vehicle or TCDC (10 μmol/[…]) by tail vein injection (as described in Example 1). […] All i.p. injections were administered under light methoxyflurane anesthesia. Following the vitamin E or saline injections, rats were randomly assigned to receive a tail vein bolus injection of either TCDC or vehicle. Rats were sacrificed four hours later and serum was analyzed for AST, ALT, total bilirubin and alkaline phosphatase. […] The serum alpha tocopherol:total lipids ratio (mg/gm) was calculated as an additional index of vitamin E status^41.

hepatic mitochondria = assay: Lipid-conjugated dienes of hepatic mitochondria (lipid peroxidation); type: in vivo, male Sprague-Dawley rats; conditions: for Lipid-conjugated dienes: 4 h
Procedure: Hepatic Mitochondria Isolation
Mitochondria were isolated from 10 grams of fresh liver from individual rats by a modification of a previously described method^27. Briefly, the liver was gently homogenized in a loose-fitting Potter-Elvehjm homogenizer in buffer containing 225 mM mannitol, 70 mM sucrose, 3 mM KH2 PO4, 2mM EDTA, 0.1% BSA, 5 mM MgCl2 (pH 7.0), filtered through cheesecloth and centrifuged at 400g×10 minutes. The supernatant was centrifuged at 10,000g for 10 minutes. The supernatant was aspirated and the pellet resuspended and centrifuged at 10,000g for 10 minutes. The resulting mitochondrial pellet was resuspended in 15 ml of buffer, divided into three tubes and added to digitonin (Sigma Chemical Company, St Louis, Mo., 0.29 mg for each gram of original liver) on wet ice×20 minutes, in order to minimize any contamination by lysosomes^28. The resulting mitochondrial preparation was washed two times in the original buffer and centrifuged at 10,000g for 10 minutes. Samples of the pellet were taken for enzyme marker analysis. Two more washes were then performed using a buffer containing 50 mM MOPS/100 mM KCI, yielding the final mitochondrial pellet.
Fresh mitochondria were analyzed for lipid peroxidation as an index of oxidant damage by the lipid-conjugated diene method of Recknagel and Ghoshal^35 with the modification of Bacon et al^36. Briefly, lipids were extracted from mitochondria pellets with chloroform and methanol (2:1, vol/vol), and the lipid in chloroform was dried under a stream of oxygen-free nitrogen^27. The dried lipid was redissolved in 1.5 ml of spectrophotometric grade cyclohexane. Absorbance from 220 to 275 nm was recorded against a cyclohexane blank on a Lambda 2 UV/is Spectrometer (Perkin-Elmer Corp., Norwalk, Conn.). Lipid concentration was approximately 0.5 mg/mi of cyclohexane. After the UV measurements, a 250 μl aliquot from each sample was analyzed for total lipid content by the method of Chiang et al.^37, and absorbance measurements were normalized to a denominator of 1.0 mg lipid per ml of cyclohexane. Lipid peroxidation was estimated by calculating the difference in absorption at 233 nm (the peak absorbance for conjugated dienes) between each rat and the mean of the values from control rats.
Because serum AST and ALT concentrations peaked at 4 hours, further evaluation of liver injury was performed at that time point Total concentrations (conjugated+free bile acids) of individual bile acids were measured in serum obtained at 4 hours by gas chromatography-mass spectroscopy (GC-MS), as previously described^30. Briefly, after serum samples were extracted with the addition of the internal standard 7-alpha, 12-alpha, dihydroxy-5 beta cholanic acid, trimethylsilyl esterification was performed. Individual bile acids were then quantified by GC or GC-MS using a Hewlett-Packard 5790 flame ionization detector equipped with a 30 meter DB-1 capillary column with internal diameter of 0.25 mm and a film thickness of 0.25 micrometers (J & W Scientific, Folsom, Calif.). For GC-MS measurements, a Hewlett-Packard 5970-A mass selective detector operating in selective ion monitoring mode was used. Results were expressed as μmol/L for each individual bile acid.
Rats were divided into two treatment groups. One group was pretreated with parenteral Vitamin E (all-rac-alpha tocopherol, Ephynal, Hoffmann-LaRoche,Nutley, N.J.). The other group was not pretreated. […]

in vivo = assay: in vivo; set-up: species or system male Sprague-Dawley rats; conditions: rat
Procedure: Rats were divided into two treatment groups. One group was pretreated with parenteral Vitamin E (all-rac-alpha tocopherol, […], Hoffmann-LaRoche,Nutley, N.J.). The other group was not pretreated. These rats then received either vehicle or TCDC (10 μmol/[…]) by tail vein injection (as described in Example 1). […] All i.p. injections were administered under light methoxyflurane anesthesia. Following the vitamin E or saline injections, rats were randomly assigned to receive a tail vein bolus injection of either TCDC or vehicle. Rats were sacrificed four hours later and serum was analyzed for AST, ALT, total bilirubin and alkaline phosphatase. […] The serum alpha tocopherol:total lipids ratio (mg/gm) was calculated as an additional index of vitamin E status^41. The liver was rapidly removed at sacrifice, the hepatic mitochondria were isolated as set forth above and analyzed for lipid-conjugated dienes as described above. A specimen of liver was also immediately frozen, protected from light and stored at -70° C. and subsequently analyzed for alpha tocopherol and reduced ubiquinol-9 by HPLC with electrochemical detection^42. The results were expressed as nmol alpha tocopherol or nmol reduced ubiquinol-9 per gram wet weight of liver.

cholestatic disorders = conditions: cited from earlier work
[1] = parenteral vitamin E pretreatment, rats receiving TCDC

Row | Compound | ALT (TCDC hepatic toxicity; Vitamin E/TCDC, n = 12, 4 h) [IU/L] | AST (TCDC hepatic toxicity; Vitamin E/TCDC, n = 12, 4 h) [IU/L] | Bilirubin (TCDC hepatic toxicity; Vitamin E/TCDC, n = 12, 4 h) [mg/dL] | Decrease in serum ALT (TCDC hepatic toxicity; [1]) | Decrease in serum AST (TCDC hepatic toxicity; [1]) | ALT (TCDC hepatic toxicity; rat, in vivo) [IU/L] | AST (TCDC hepatic toxicity; rat, in vivo) [IU/L] | Bilirubin (TCDC hepatic toxicity; rat, in vivo) [mg/dL] | Hepatic injury and mitochondrial lipid peroxidation, overall result (TCDC hepatic toxicity; vitamin E pretreatment, TCDC) | Lipid-conjugated dienes (hepatic mitochondria; Vitamin E/TCDC, n = 12) | Lipid-conjugated dienes (hepatic mitochondria; Vitamin E/Vehicle, n = 7) | Mitochondrial lipid-conjugated dienes, change (hepatic mitochondria; vitamin E pretreatment, i.v. TCDC group) | Hepatic alpha tocopherol concentrations, change (in vivo) | Serum vitamin E concentrations, change (in vivo) | Serum vitamin E:total lipid ratios, change (in vivo) | Serum alpha tocopherol (in vivo; 4 h) [µg/mL] | concentration at 4 h (in vivo; Serum alpha tocopherol) [ng/mL] | Hepatoprotective and choleretic effects (cholestatic disorders)
1 | Cc1c(C)c2c(c(C)c1O)CCC(C)(CCCC(C)CCCC(C)CCCC(C)C)O2 (racemic) [Vitamin E, all-rac-alpha tocopherol] | 325 ± 78 | 870 ± 278 | 0.2 ± 0.02 | approximately 70% | approximately 70% | 61 ± 5 | 81 ± 2 | 0.2 ± 0.02 | attenuated both the hepatic injury and the severity of mitochondrial lipid peroxidation | 0.13 ± 0.01 delta abs. 233 nm/mg lipid | -0.03 ± 0.02 delta abs. 233 nm/mg lipid | significant reduction | significant increases | significant increases | significant increases | 13.2 ± 0.7 | 9900 ± 700 | –
2 | C[C@H](CCC(=O)O)[C@H]1CC[C@H]2[C@@H]3[C@@H](O)C[C@@H]4C[C@H](O)CC[C@]4(C)[C@H]3CC[C@]12C [ursodeoxycholic acid] | – | – | – | – | – | – | – | – | – | – | – | – | – | – | – | – | – | hepatoprotective as well as choleretic effects

Source: US6069167A, “Use of antioxidant agents to treat cholestatic liver disease” (priority 1997, dated 2000)
